The record followed here is ChEMBL document CHEMBL2016562, “Optimization of Pharmacokinetics through Manipulation of Physicochemical Properties in a Series of HCV Inhibitors” (ACS Med Chem Lett, 2011).

One data set relates to Hepatitis C virus. In words: Antiviral activity against HCV subtype 1b in replicon cells after 3 days by luciferase reporter gene assay. As to conditions: genotype 1b, 72 h. Type of data set: functional, Hepacivirus hominis.
Data set [1] in a line: Volume of distribution at steady state in Sprague-Dawley rat after 30 mins. The settings on record: in vivo, read-out: Vdss. Type of data set: ADME, organism-based.
Data set [2] is described as follows: Oral bioavailability in Sprague-Dawley rat after 30 mins. Type of data set: ADME, organism-based. As to conditions: in vivo.
Data set [3] in a line: Mean residence time in Sprague-Dawley rat. Format: ADME, organism-based. As to conditions: in vivo.
A short description of data set [4]: Half life in Sprague-Dawley rat liver microsomes. Type of data set: ADME, Microsome.
Data set [5] can be described thus: Clearance in Sprague-Dawley rat after 30 mins. Format: ADME, organism-based. The settings on record: in vivo.
Data set [6] in a line: Apparent permeability by PAMPA assay. Format: ADME.

The structures appear in SMILES notation. Where only a bound is given, the exact number is not on record here.

As for `NS(=O)(=O)c1ccc(CNc2nc(NCC(F)(F)F)c3nc(-c4ccc(F)cc4)ccc3n2)cc1`, the EC50 in the data set with Hepatitis C virus was found to be 16 nM. Further, in data set [1], the Vd was found to be 2.3 L/kg. This molecule also gave a bioavailability in data set [2] of 100%. Further, the MRT in data set [3] was 6.9 h. For the same molecule, in data set [4], the half-life was over 6.58 h. In addition, the clearance in data set [5] was 5 mL/min/kg.
`COc1ccc(-c2ccc3nc(N[C@H](C)c4ccc(-n5cncn5)cc4)nc(NCC(F)(F)F)c3n2)cc1S(C)(=O)=O` returned an EC50 in the data set with Hepatitis C virus of 2 nM. Moreover, the bioavailability in data set [2] is 47%. The mean residence time MRT in data set [3] is 2.6 h. The half-life in data set [4] came to 5.85 h.
On the same counts, the results for `COc1ccc(-c2ccc3nc(NCc4ccc(S(N)(=O)=O)cc4)nc(NC4(C#N)CC4)c3n2)cn1` are 1 nM, 2%, 0.4 h and 1.62 h.
In the case of `NS(=O)(=O)c1ccc(CNc2nc(NCC(F)(F)F)c3nc(-c4ccc(-n5cncn5)cc4)ccc3n2)cc1`, a half-maximal response in the data set on Hepatitis C virus (EC50) required 2 nM. This molecule had a bioavailability in data set [2] of 4%. In data set [4], this molecule registered a half-life of over 6.58 h.
Turning to `NS(=O)(=O)c1cc(CNc2nc(NCC(F)(F)F)c3nc(-c4ccc(NC(=O)C5(C(F)(F)F)CC5)cc4)ccc3n2)cc(C(F)(F)F)c1`, in the data set with Hepatitis C virus, the EC50 worked out at 6 nM. The same molecule had a bioavailability in data set [2] of 39%. In data set [6], the Papp came out at 0.09 ×10⁻⁶ cm/s. Further, the half-life in data set [4] was over 6.58 h.
On to `C[C@@H](Nc1nc(NC2(C(F)(F)F)CC2)c2nc(-c3cccc(S(C)(=O)=O)c3)ccc2n1)c1ccc(-n2cncn2)cc1`, for which the EC50 in the data set on Hepatitis C virus is 4 nM. The bioavailability in data set [2] was 88%. In addition, in data set [3], the MRT is 3.5 h. Further, the half-life in data set [4] amounted to 3.92 h.
For the molecule `NS(=O)(=O)c1ccc(CNc2nc(NCC(F)(F)F)c3nc(-c4ccc(F)nc4)ccc3n2)cc1`, in the data set with Hepatitis C virus, the EC50 was 10 nM. Further, in data set [1], the Vd is 1 L/kg. In data set [3], the MRT was found to be 4.9 h. Further, in data set [4], the half-life worked out at 4.63 h. Moreover, in data set [5], the clearance was 3.33 mL/min/kg.
Regarding `FC(F)(F)CNc1nc(NCc2ccc(-n3cncn3)cc2)nc2ccc(-c3ccc(OC4CC4)nc3)nc12`, a half-maximal response in the data set on Hepatitis C virus (EC50) required 3 nM. In data set [2], this molecule gave a bioavailability of 59%. The molecule further came in with an MRT in data set [3] of 5.3 h. Moreover, the half-life in data set [4] was over 6.58 h.
`NS(=O)(=O)c1cc(Cl)cc(CNc2nc(NC3(C(F)(F)F)CC3)c3nc(-c4ccc(F)cc4)ccc3n2)c1` had an EC50 with Hepatitis C virus of 28 nM. Besides, the Vd in data set [1] stood at 4.3 L/kg. Moreover, the MRT in data set [3] came out at 11 h. This molecule also showed a half-life in data set [4] of over 6.58 h. For the same molecule, the clearance in data set [5] is 6.67 mL/min/kg.
On the same counts, the results for `N#CC1(Nc2nc(NCc3ccc(S(N)(=O)=O)cc3)nc3ccc(-c4ccc(F)nc4)nc23)CC1` are 5 nM, 0.9 L/kg, 0.9 h, over 6.58 h and 15 mL/min/kg.
The molecule `NS(=O)(=O)c1ccc(CNc2nc(NCC(F)(F)F)c3nc(-c4ccc(NC(=O)C5CC5)cc4)ccc3n2)cc1` registered an EC50 in the data set with Hepatitis C virus of 3 nM. Moreover, the bioavailability in data set [2] was 1%. Also, the Papp in data set [6] amounted to 0.004 ×10⁻⁶ cm/s. In data set [4], the half-life worked out at 1.17 h.
`COc1ccc(-c2ccc3nc(NCc4ccc(S(N)(=O)=O)cc4)nc(NCC(F)(F)F)c3n2)cc1S(C)(=O)=O`: the EC50 in the data set with Hepatitis C virus came to 1 nM. Besides, in data set [2], the bioavailability is 1%. In data set [3], the MRT was 0.8 h. In data set [4], this molecule returned a half-life of over 6.58 h.
In turn, `CC1(Oc2nc(NCc3ccc(-n4cncn4)cc3)nc3ccc(-c4ccc(OC5CC5)nc4)nc23)CC1` came in with an EC50 with Hepatitis C virus of 2 nM. In data set [2], this molecule displayed a bioavailability of 100%. The molecule also returned an MRT in data set [3] of 1.9 h. In data set [4], this molecule displayed a half-life of over 6.58 h.
